The source of these data is patent US20200171065A1, “METHOD FOR TREATING LIVER DISEASE WITH KINSENOSIDE” (HUAZHONG UNIVERSITY OF SCIENCE AND TECHNOLOGY, priority 2017, published 2020).

Structures are written as SMILES.

This test concerns SD mice with ANIT induced intrahepatic cholestasis. Put plainly: ANIT-induced intrahepatic cholestasis. The class given is in vivo. The method, then:
42 SPF SD mice were purchased and raised in the SPF experimental animal center of Tongji Medical College of Huazhong University of Science and Technology. They were provided with standard diet and drinking water. The room temperature was controlled at 23±2° C. After 3 days of adaptive feeding, they were given drugs by intragastric administration. 42 SD mice were randomly divided into 7 groups (normal control group, ANIT model group, KD low-dose group, KD medium dose group, KD high-dose group, UDCA positive control group and KD negative control group), 6 mice in each group were weighed and recorded daily. […] Thereafter, the drug was given again every 24 hours for 3 times, and the animals in each group were fasted (water was provided) after the third time. 72 hours later, the animals were killed and samples were collected.

For `C[C@H](CCC(=O)O)[C@H]1CC[C@H]2[C@@H]3[C@@H](O)C[C@@H]4C[C@H](O)CC[C@]4(C)[C@H]3CC[C@]12C` [UDCA, reference compound], for the setting “KD 50, 100, 200 mg/kg or UDCA 80 mg/kg by gavage”, the plasma color entry was “turned light yellow similar to that of the normal control group”. The “hepatic sinusoid and inflammatory cell infiltration (HE staining)” value (different doses of KD, UDCA treatment group) was “normal hepatic sinusoid, obvious hepatocyte gap, and obvious recovery of inflammatory cell infiltration”. In addition, the “plasma ALT, AST, AKP, TBIL and DBIL” value (low, medium and high doses of KD, 80 mg/kg UDCA) is “can significantly reduce ALT, AST, AKP, TBIL and DBIL”. Under “medium and high doses of KD, 80 mg/kg UDCA”, the “plasma TBA” value is listed as “can significantly reduce TBA”.
